What all share (type): cell-based
In one experiment the test system is U937 cells. Description: Selection of acquired resistance by repeated treatment cycles. As for the experimental part: Cell cultures were performed with the lymphoma cell line U937. Cells were grown in complete RPMI medium supplemented with 10% FBS and 1% Penicillin/Streptomycin and maintained at 37° C. in a humidified atmosphere at 5% CO2. This cell line was chosen according to its high sensitivity to both OX401 and talazoparib. For repeated cycles of the treatment to select resistance, U937 cells were seeded at appropriate densities (2.10^5 cells/mL) and incubated 24 h at 37° C. before addition of the drug at doses corresponding to 10-20% survival compared to non-treated cells. Resistances were selected under 2 μM talazoparib or 1.5 μM OX401. Cells were harvested on day 4 after treatment, washed, and counted after staining with 0.4% trypan blue (Eve™ counting slides, NanoEnTek). After counting, cells were seeded in appropriate culture plates, and allowed to recover (drug free period) for 3 to 7 days. Another cycle of treatment/recovery was then started for up to 4 cycles.

Experiment [1] relates to Ta11, Ta12 and Ta13 resistant populations. Description: XTT survival, talazoparib-resistant U937 populations. The settings on record: Homo sapiens, U-937, 96 h, 4 days. As for the experimental part:
(§1) Cell cultures were performed with the lymphoma cell line U937. Cells were grown in complete RPMI medium supplemented with 10% FBS and 1% Penicillin/Streptomycin and maintained at 37° C. in a humidified atmosphere at 5% CO2. This cell line was chosen according to its high sensitivity to both OX401 and talazoparib. To assess the acquired resistances irreversibility, U937 parental or resistant cells were seeded in 96 well-plates (2.10^4 cells/well) and treated with increasing concentrations of talazoparib for 4 days. Following drug exposure, cell survival was measured using the XTT assay (Sigma Aldrich). Briefly, the XTT solution was added directly to each well containing cell culture and the cells incubated for 5 hours at 37° C. before reading the absorbance at 490 nm and 690 nm using a microplate reader (BMG Fluostar, Galaxy). Cell survival was calculated as the ratio of living treated cells to living mock-treated cells. The IC50 (which represents the dose at which 50% of the cells are viable) was calculated by a non-linear regression model using GraphPad Prism software (version 5.04) by plotting the percentage viability against the Log of the drug concentration on each cell line.
In general terms: Formazan colour is commonly taken as a measure of viable cells.

A further experiment deals with U937 parental cells. Briefly: XTT survival, U937 parental cells. To be noted: Homo sapiens, U-937, 96 h, 4 days. On the procedure:
as §1

The subject of the next experiment is MDA-MB-231 cells. Briefly: Drug-induced DNA damage (γH2AX) by flow cytometry and immunofluorescence. To be noted: MDA-MB-231, 5 μM, 48 h. As for the experimental part:
(§2) Cell cultures were performed with the triple negative breast cancer cell line MDA-MB-231. Cells were grown in complete L15 Leibovitz medium and maintained at 37° C. in a humidified atmosphere at 0% Co2.
For immunostaining, cells are seeded on cover slips (Menzel, Braunschweig, Germany) at a concentration of 5×10^5 cells and incubated at 37° C. during 1 day. Cells are then treated with olaparib (5 μM)+/−OX401 (5 μM). 48 h after treatment, cells are fixed for 20 min in 4% paraformaldehyde/Phosphate-Buffered Saline (PBS 1×), permeabilized in 0.5% Triton X-100 for 10 min, blocked with 2% bovine serum albumin/PBS 1× and incubated with primary antibody for 1 h at 4° C. All secondary antibodies were used at a dilution of 1/200 for 45 min at Room Temperature (RT), and DNA was stained with 4′, 6-diamidino-2-phenylindole (DAPI). […]
Cells were treated with OX401 (5 μM) or Olaparib (5 μM) for 48 hours and then fixed and permeabilized with cold (−20° C.) 70% ethanol for at least 2 hours. […] Fluorescence intensities were determined with a Guava EasyCyte cytometer (Luminex). Data were analyzed using FlowJo software (Tree Star, Calif.).
On the technique in general: Flow cytometry measures light scatter and fluorescence of single cells or particles in a stream.

For experiment [2], the system named is homologous recombination repair pathway. Description: Homologous recombination pathway activity (Rad51 foci). The settings on record: MDA-MB-231, olaparib 5 μM alone, 48 h. As for the experimental part:
as §2
For immunostaining, cells are seeded on cover slips (Menzel, Braunschweig, Germany) at a concentration of 5×10^5 cells and incubated at 37° C. during 1 day. Cells are then treated with olaparib (5 μM)+/−OX401 (5 μM). 48 h after treatment, cells are fixed for 20 min in 4% paraformaldehyde/Phosphate-Buffered Saline (PBS 1×), permeabilized in 0.5% Triton X-100 for 10 min, blocked with 2% bovine serum albumin/PBS 1× and incubated with primary antibody for 1 h at 4° C. All secondary antibodies were used at a dilution of 1/200 for 45 min at Room Temperature (RT), and DNA was stained with 4′, 6-diamidino-2-phenylindole (DAPI). The following antibodies were used: primary monoclonal mouse anti-phospho-H2AX (Millipore, Guyancourt, France), anti-Rad51 rabbit antibody (Merk Millipore, Darmstadt, Allemagne), secondary goat anti-mouse IgG conjugated with Alexa-633 (Molecular Probes, Eugene, Oreg., USA) and secondary goat anti-rabbit IgG conjugated with Alexa-488 (Molecular Probes, Eugene, Oreg., USA).

The structures appear in SMILES notation.

This note sets out measurements from patent US20220054524A1, “NEW CONJUGATED NUCLEIC ACID MOLECULES AND THEIR USES” (ONXEO, priority 2018, published 2022).

The term IC50 denotes the concentration needed to halve the response being measured. As for `Cn1ncnc1[C@H]1c2n[nH]c(=O)c3cc(F)cc(c23)N[C@@H]1c1ccc(F)cc1` [talazoparib], the “Cell survival after the first cycle” value in the experiment with U937 cells (U937, talazoparib 2 μM) was 10%. Besides, the “Cell growth during drug-free amplification periods” value with U937 cells (U937, talazoparib 2 μM or OX401 1.5 μM, cycles of treatment) is reported as “recovered”. Also, the “Cell survival after the forth cycle of treatment” value in the experiment on U937 cells (U937, talazoparib 2 μM, 33 days after treatment start) is given as “more than 50%”. Further, the IC50 was more than 4 µM in experiment [1] and 2000 nM in the experiment with U937 parental cells.

`O=C(c1cc(Cc2n[nH]c(=O)c3ccccc23)ccc1F)N1CCN(C(=O)C2CC2)CC1` [olaparib]: the “γH2AX DSB biomarker (double-strand breaks accumulation)” value in the experiment with MDA-MB-231 cells is “high phosphorylation of histone H2AX”. Further, the “γH2AX and Rad51 foci” value in experiment [2] is on record as “accumulation of γH2AX Foci that co-localize with Rad51 foci”.
